Experimental data taken from patent publication US20040081972A1, “Novel physiologically active peptide and use thereof” (priority 2000, published 2004).
[ ]: non-standard residue; d: D form. LYB = not defined here

Experiments:
Format in all cases: cell-based
[1] = system: blood vessel of an apoaequorin transgenic mouse; experiment: Intracellular calcium (aequorin luminescence) in blood vessel pieces of apoaequorin transgenic mouse
Protocol: (§1) In order to evaluate physiological activities of the peptides prepared in Example 1, the prepared peptides were allowed to act upon organs excised from the living body, and changes in the concentration of an intracellular signal transduction substance in cells constituting the organs were measured.
(§2) In order to measure changes in the concentration of an intracellular signal transduction substance in cells constituting the organs, a transgenic mouse prepared by integrated an apoaequorin gene expression vector into a chromosome was used. Specifically, a female mouse derived from the transgenic mouse disclosed in Reference Example 4 as an individual number 98075-04-6 was used in the test. The transgenic mouse was prepared and reared as an SPF animal in a clean room, and was not contaminated with pathogens including mouse hepatitis virus, Sendai virus, mycoplasma and Tyzzer bacterium.
(§3) Aequorin is a bioluminescent protein complex which is present in the umbrella region of luminescent Aequorea victoria. Aequorin is constituted from its protein moiety apoaequorin, its luminescence substrate coelent razin and molecular oxygen, and emits light by its binding with calcium ion. Since expression of the apoaequorin protein has been confirmed in at least thymus, spleen, abdominal muscle, diaphragm, kidney, crystalline lens, pancreas, fat tissue, liver, skull, blood vessel, ovary, womb and adrenal gland of the transgenic mouse used in the test, it was able to monitor changes in the intracellular calcium ion concentration in these organs with a high sensitivity.
(§4) Organs were prepared from offsprings borne from the female of individual number 98075-04-6 to examine the activities of the peptides produced in Example 1. After the offsprings were killed, the thymus, spleen, abdominal muscle, diaphragm, kidney, crystalline lens, pancreas, fat tissue, liver, skull, blood vessel, ovary, womb and adrenal gland were excised. Each of the excised organs was cut into small cubes of about 1 to 2 mm square in PBS containing 10 units/ml of heparin sodium and thoroughly washed by changing the solution. Next, three pieces of each of the organ samples thus prepared were put into a 5 ml capacity tube (Rohren-Tubes; No. 55.476, manufactured by Sarstedt) which had been charged with RPMI 1640 medium containing 200 μl of 10 μmol/l coelenterazine (manufactured by Molecular Probes), and cultured at 37° C. for 5 hours. Five hours after, various substances shown below dissolved in RPMI 1640 medium were added at 200 μl, and the luminescence was measured just after the addition at 1 second intervals using a luminometer AutoLumat LB953 (manufactured by BERTHOLD).

[2] = system: thymus of an apoaequorin transgenic mouse; experiment: Intracellular calcium (aequorin luminescence) in thymus pieces of apoaequorin transgenic mouse
Protocol: as §1
as §2, with “The transgenic mouse was prepared and reared as an SPF animal in a clean room, and was not contaminated with pathogens including mouse hepatitis virus, Sendai virus, mycoplasma and Tyzzer bacterium.” left out
Aequorin is a bioluminescent protein complex which is present in the umbrella region of luminescent Aequorea victoria. Aequorin is constituted from its protein moiety apoaequorin, its luminescence substrate coelent razin and molecular oxygen, and emits light by its binding with calcium ion. […]
Organs were prepared from offsprings borne from the female of individual number 98075-04-6 to examine the activities of the peptides produced in Example 1. […] Five hours after, various substances shown below dissolved in RPMI 1640 medium were added at 200 μl, and the luminescence was measured just after the addition at 1 second intervals using a luminometer AutoLumat LB953 (manufactured by BERTHOLD).

[3] = system: spleen of an apoaequorin transgenic mouse; experiment: Intracellular calcium (aequorin luminescence) in spleen pieces of apoaequorin transgenic mouse; settings: for physiological activity (the activity found in Peptide 1 or Peptide 3): purified samples, method of Example 3
Protocol: as §1, §2, §3, §4
Organs were prepared from offsprings borne from the female of individual number 98075-04-6 to examine the activities of the peptides produced in Example 1. After the offsprings were killed, the spleen was excised. The excised spleen was cut into small cubes of about 1 to 2 mm square in PBS containing 10 units/ml of heparin sodium and thoroughly washed by changing the solution. Next, three pieces of the prepared spleen sample were put into a 5 ml capacity tube (Rohren-Tubes; No. 55.476, manufactured by Sarstedt) which had been charged with RPMI 1640 medium containing 200 μl of 10 μmol/l coelenterazine (manufactured by Molecular Probes), and cultured at 37° C. for 5 hours. Five hours after, various substances shown below dissolved in RPMI 1640 medium were added at 200 μl, and the luminescence was measured just after the addition at 1 second intervals using a luminometer AutoLumat LB953 (manufactured by BERTHOLD).
RPMI 1640, a peptide prepared in Example 1 (final concentration: 10 nmol/l), a peptide prepared in Example 1 (final concentration: 100 nmol/l), a peptide prepared in Example 1 (final concentration: 1 μmol/l), a peptide prepared in Example 1 (final concentration; 10 μmol/l), ATP (final concentration: 100 μmol/l), A23187 (final concentration: 1 μmol/l) and Triton X-100 (final concentration: 2%) were added in order. […]

[4] = system: skull (cranial bone) of an apoaequorin transgenic mouse; experiment: Intracellular calcium (aequorin luminescence) in skull (cranial bone) pieces of apoaequorin transgenic mouse; settings: final concentration 10 μmol/l
Protocol: as §1, §2, §3, §4

[5] = system: spleen of an apoaequorin transgenic mouse; experiment: Intracellular calcium (aequorin luminescence) in spleen pieces of apoaequorin transgenic mouse
[6] = system: thymus, abdominal muscle, diaphragm, kidney, crystalline lens, pancreas, fat tissue, liver, blood vessel, ovary, womb and adrenal gland; experiment: Intracellular calcium (aequorin luminescence) in organs other than the spleen and skull of apoaequorin transgenic mouse
Protocol: In order to measure changes in the concentration of an intracellular signal transduction substance in cells constituting the organs, a transgenic mouse prepared by integrated an apoaequorin gene expression vector into a chromosome was used. […] The transgenic mouse was prepared and reared as an SPF animal in a clean room, and was not contaminated with pathogens including mouse hepatitis virus, Sendai virus, mycoplasma and Tyzzer bacterium.

[7] = 10 nmol/l, 100 nmol/l, 1 μmol/l, 10 μmol/l added in order

C[N+](C)(C)CCOC(N)=O [carbachol]
luminescence (intracellular calcium increase) ([1]; final concentration 10 μmol/l): Strong luminescenc

CNC[C@H](O)c1cccc(O)c1 [phenylephrine]
luminescence (intracellular calcium increase) ([1]; final concentration 20 μmol/l): Strong luminescence | luminescence (intracellular calcium increase) ([2]; final concentration 20 μmol/l): Strong luminescence

H-Met-Met-Glu-Lys-Leu-Gly-Val-Pro-Lys-Thr-His-Leu-Glu-Met-Lys-Lys-Met-Ile-Ser-Glu-Val-Thr-Gly-Gly-Val-Ser-Asp-Thr-Ile-Ser-Tyr-Arg-Asp-Phe-Val-Asn-Met-Met-Leu-NH2 (H-MMEKLGVPKTHLEMKKMISEVTGGVSDTISYRDFVNMML-NH2) [Peptide 3]
final concentration from which concentration-dependent luminescence was observed [3, 7]: 1 µmol/L | luminescence (intracellular calcium increase) ([3]; final concentration 10 μmol/l): Strong luminescence | luminescence (intracellular calcium increase) [4]: Strong luminescence | luminescence (intracellular calcium increase) ([5]; final concentration 8 μmol/l): Strong luminescence

H-Met-Leu-Glu-Lys-Leu-Gly-Val-Pro-Lys-Thr-His-Leu-Glu-Leu-Lys-Arg-Leu-Ile-Arg-Glu-Val-Ser-Ser-Gly-Ser-Glu-Glu-Thr-Phe-Ser-Tyr-Ser-Asp-Phe-Leu-Arg-Met-Met-Leu-NH2 (H-MLEKLGVPKTHLELKRLIREVSSGSEETFSYSDFLRMML-NH2) [Peptide 2]
final concentration from which concentration-dependent luminescence was observed [3, 7]: 0.1 µmol/L | luminescence (intracellular calcium increase) ([3]; final concentration 10 μmol/l): Strong luminescence | luminescence (intracellular calcium increase) [4]: Strong luminescence

H-Val-Thr-Pro-His-Thr-Lys-Leu-Val-Tyr-Ser-Glu-Ser-Val-Ile-Met-Asn-Met-Ser-Lys-Gly-Glu-Gly-Leu-Met-Glu-Ile-Lys-Leu-Met-Asp-Asp-Met-Met-Thr-Phe-Arg-Lys-val-Gly-NH2 (H-VTPHTKLVYSESVIMNMSKGEGLMEIKLMDDMMTFRK[dV]G-NH2; SMILES CC[C@H](C)[C@H](NC(=O)[C@H](CCC(=O)O)NC(=O)[C@H](CCSC)NC(=O)[C@H](CC(C)C)NC(=O)CNC(=O)[C@H](CCC(=O)O)NC(=O)CNC(=O)[C@H](CCCCN)NC(=O)[C@H](CO)NC(=O)[C@H](CCSC)NC(=O)[C@H](CC(N)=O)NC(=O)[C@H](CCSC)NC(=O)[C@@H](NC(=O)[C@@H](NC(=O)[C@H](CO)NC(=O)[C@H](CCC(=O)O)NC(=O)[C@H](CO)NC(=O)[C@H](Cc1ccc(O)cc1)NC(=O)[C@@H](NC(=O)[C@H](CC(C)C)NC(=O)[C@H](CCCCN)NC(=O)[C@@H](NC(=O)[C@H](Cc1c[nH]cn1)NC(=O)[C@@H]1CCCN1C(=O)[C@@H](NC(=O)[C@@H](N)C(C)C)[C@@H](C)O)[C@@H](C)O)C(C)C)C(C)C)[C@@H](C)CC)C(=O)N[C@@H](CCCCN)C(=O)N[C@@H](CC(C)C)C(=O)N[C@@H](CCSC)C(=O)N[C@@H](CC(=O)O)C(=O)N[C@@H](CC(=O)O)C(=O)N[C@@H](CCSC)C(=O)N[C@@H](CCSC)C(=O)N[C@H](C(=O)N[C@@H](Cc1ccccc1)C(=O)N[C@@H](CCCNC(=N)N)C(=O)N[C@@H](CCCCN)C(=O)N[C@@H](C(=O)NCC(N)=O)C(C)C)[C@@H](C)O) [Peptide 3S]
luminescence (intracellular calcium increase) ([3]; final concentration 10 μmol/l): not detected | luminescence (intracellular calcium increase) [4]: not detected

H-Met-Leu-Glu-Lys-Leu-Gly-Val-Pro-Lys-Thr-His-Leu-Glu-Leu-Lys-Lys-Leu-Ile-Gly-Glu-Val-Ser-Ser-Gly-Ser-Gly-Glu-Thr-Phe-Ser-Tyr-Pro-Asp-Phe-Leu-Arg-Met-Met-Leu-NH2 (H-MLEKLGVPKTHLELKKLIGEVSSGSGETFSYPDFLRMML-NH2) [Peptide 1]
concentration at which luminescence accompanied by the increased intracellular calcium was observed [3, 7]: 10 µmol/L | luminescence (intracellular calcium increase) ([3]; final concentration 10 μmol/l): Strong luminescence | luminescence (intracellular calcium increase) [4]: Strong luminescence | luminescence (intracellular calcium increase) ([5]; final concentration 6 μmol/l): Strong luminescence

Triton X-100
luminescence ([6]; final concentration 2%): luminescence was observed

Nc1ncnc2c1ncn2[C@@H]1O[C@H](COP(=O)(O)OP(=O)(O)OP(=O)(O)O)[C@@H](O)[C@H]1O [ATP]
luminescence (intracellular calcium increase) ([3]; final concentration 100 μmol/l): Strong luminescence | luminescence (intracellular calcium increase) ([1]; final concentration 100 μmol/l): Strong luminescence | luminescence (intracellular calcium increase) ([2]; final concentration 100 μmol/l): Strong luminescence | luminescence (intracellular calcium increase) ([6]; final concentration 100 μmol/l): luminescence was observed

CC[C@H](C)[C@H](NC(=O)[C@H](CC(=O)O)NC(=O)[C@H](CC(C)C)NC(=O)[C@H](Cc1c[nH]cn1)NC(=O)[C@@H]1CSSC[C@H](N)C(=O)N[C@@H](CO)C(=O)N[C@H]2CSSC[C@H](NC(=O)[C@H](CCC(=O)O)NC(=O)[C@H](CCCCN)NC(=O)[C@H](CC(=O)O)NC(=O)[C@H](CCSC)NC(=O)[C@H](CC(C)C)NC(=O)[C@H](CO)NC(=O)[C@H](CO)NC2=O)C(=O)N[C@@H](C(C)C)C(=O)N[C@@H](Cc2ccc(O)cc2)C(=O)N[C@@H](Cc2ccccc2)C(=O)N1)C(=O)N[C@H](C(=O)N[C@@H](Cc1c[nH]c2ccccc12)C(=O)O)[C@@H](C)CC [endothelin]
luminescence (intracellular calcium increase) ([1]; final concentration 10 nmol/l): Strong luminescence

H-Leu-Ile-Arg-Glu-Val-Ser-Ser-Gly-Ser-Glu-Glu-Thr-Phe-Ser-Tyr-Ser-Asp-Phe-Leu-Arg-Met-Met-Leu-NH2 (H-LIREVSSGSEETFSYSDFLRMML-NH2) [Peptide 2 short]
final concentration from which concentration-dependent luminescence was observed [3, 7]: 1 µmol/L | activity maintained relative to the activity of Peptide 2 ([3]; fraction of Peptide 2 activity): 1/10

CNc1ccc2oc(C[C@H]3O[C@@]4(CC[C@H]3C)O[C@H]([C@H](C)C(=O)c3ccc[nH]3)[C@H](C)C[C@H]4C)nc2c1C(=O)O [Peptide A23187, A23187]
luminescence (intracellular calcium increase) ([6]; final concentration 1 μmol/l): luminescence was observed

H-Leu-Ser-Pro-His-Thr-Lys-Leu-Ser-Tyr-Arg-Glu-Glu-Val-Phe-Leu-Arg-Leu-Ser-Lys-Ser-Glu-Gly-Leu-Met-Glu-Ile-LYB-Leu-Met-Glu-Asp-Leu-Met-val-Phe-Ser-Arg-Thr-Gly-NH2 (H-LSPHTKLSYREEVFLRLSKSEGLMEI[LYB]LMEDLM[dV]FSRTG-NH2; reading uncertain) [Peptide 2S]
luminescence (intracellular calcium increase) ([3]; final concentration 10 μmol/l): not detected | luminescence (intracellular calcium increase) [4]: not detected

H-Leu-Ser-Pro-His-Thr-Lys-Leu-Ser-Tyr-Gly-Glu-Gly-Val-Phe-Leu-Arg-Leu-Ser-Lys-Ser-Glu-Gly-Leu-Met-Glu-Ile-Lys-Leu-Met-Glu-Asp-Leu-Met-Val-Phe-Pro-Lys-Thr-Gly-NH2 (H-LSPHTKLSYGEGVFLRLSKSEGLMEIKLMEDLMVFPKTG-NH2) [Peptide 1S]
luminescence (intracellular calcium increase) ([3]; final concentration 10 μmol/l): not detected | luminescence (intracellular calcium increase) [4]: not detected

B1: AIF-1: precursor protein comprising the amino acid sequence represented by SEQ ID NO:1; purified after FXa cleavage of MBP fusion (protein, listed as Homo sapiens)
chain: MSQTRDLQGGKAFGLLKAQQEERLDEINKQFLDDPKYSSDEDLPSKLEGFKEKYMEFDLNGNGDIDIMSLKRMLEKLGVPKTHLELKKLIGEVSSGSGETFSYPDFLRMMLGKRSAILKMILMYEEKAREKEKPTGPPAKKAISELP
physiological activity (the activity found in Peptide 1 or Peptide 3) [3]: not observed

B2: AIF-2: precursor protein comprising the amino acid sequence represented by SEQ ID NO:5; purified after FXa cleavage of MBP fusion (protein, listed as Homo sapiens)
chain: MSGELSNRFQGGKAFGLLKARQERRLAEINRELLCDQKYSDEENLPEKLTAFKEKYMEFDLNNEGEIDLMSLKRMMEKLGVPKTHLEMKKMISEVTGGVSDTISYRDFVNMMLGKRSAVLKLVMMFEGKANESSPKPVGPPPERDIASLP
physiological activity (the activity found in Peptide 1 or Peptide 3) [3]: not observed
